{"source": "patent US20240327415A1", "about": "“Multicomponent Complexes, Including Salts, Crystalline Forms, and Hydrates and Solvates of ENT1 Inhibitors” (iTeos Belgium SA, priority 2023, published 2024)", "format_in_all_cases": "physicochemical", "key": {"[1]": {"experiment": "pH solubility studies in buffers and biorelevant media (Example 16)", "parameters": "key: A: amorphous; Crystalline Form 10 mono(hydrogen sulfate)", "settings": "pH 6.8 (Phosphate), 24 h", "method": "Example 16—pH Solubility Studies—(1) Crystalline Form 2 Compound 1 di(hydrogen sulfate) trihydrate, (2) Crystalline Form 3 Compound 1 di(hydrogen sulfate), and (3) Crystalline Form 4 Compound 1 mono(hydrogen sulfate): pH solubility studies were carried out on the prepared crystalline Form 2 Compound 1 di(hydrogen sulfate) trihydrate, crystalline Form 3 Compound 1 di(hydrogen sulfate) and crystalline Form 4 Compound 1 mono(hydrogen sulfate) in the following media: (1) HCl/KCl, pH 1.2; (2) Acetate, pH 4.5; (3) Phosphate, pH 6.8; (4) FaSSIF; (5) FeSSIF; and (6) FaSSGF. Slurries of the hydrogen sulfate forms were prepared in the appropriate medium and stirred at 25° C. For the experiments in the buffer media, the pH of the slurry samples was measured and adjusted as required after 1 hour and 23 hours of the slurrying. Additional solid was added where dissolution was observed post-adjustment. The pH of the samples in the biorelevant media was measured at the 23 hour timepoint. No pH adjustment was made for the biorelevant media. After a total of 24 hours of slurrying, the mother liquors were extracted via centrifugation, and the concentrations and solution purity were determined by HPLC. The residual solids were isolated and analyzed by XRPD and are shown in FIG. 77, FIG. 78, and FIG. 79. The assessment was repeated for some of the samples, where required."}, "[2]": {"experiment": "Variable Humidity X-Ray Powder Diffraction (VH-XRPD)", "method": "(§1) In the examples below, VH-XRPD analysis was carried out on a Philips X'Pert Pro Multipurpose diffractometer equipped with a humidity chamber. The samples were scanned between 4 and 36° 2θ using Cu K radiation (α1λ=1.54060 Å; α2=1.54443 Å; β=1.39225 Å; α1: α2 ratio=0.5; most, if not all, B radiation is removed from the beam using an X-ray mirror) running in Bragg-Brentano geometry (step size 0.008° 2θ) using 40 kV/40 mA generator settings. Measurements were carried out from 2-90% RH, with a final measurement taken at 40% RH.\nas §1, with “VH-XRPD” for “In the examples below, VH-XRPD”, “radiation (α1 λ=1.54060” for “radiation (α1λ=1.54060”, “Å; α1:α2” for “Å; α1: α2”, “all, β” for “all, B”, “from 6-90% relative humidity (RH),” for “from 2-90% RH,”"}, "[3]": {"experiment": "hydration mapping studies (slurries at different water activities, Example 17)", "method": "Example 17—Hydration Mapping Studies-Crystalline Form 2 Compound 1 di(hydrogen sulfate) trihydrate, Crystalline Form 3 Compound 1 di(hydrogen sulfate), and Blend: The effects of different water activities on crystalline Form 2 Compound 1 di(hydrogen sulfate) trihydrate, crystalline Form 3 Compound 1 di(hydrogen sulfate) and a blend of the two were investigated. The “blend” was prepared by mixing crystalline Form 2 Compound 1 di(hydrogen sulfate) trihydrate and crystalline Form 3 Compound 1 di(hydrogen sulfate) in a 1:1 ratio. To the vials containing the required solid material, the appropriate solvent system was added to form slurries. The slurry samples were stirred at the required temperatures during and after the solvent addition. Where dissolution was observed post-solvent addition, additional solid was added to re-saturate the sample. After stirring at the required temperature for 48 hours, the residual solids left in the vials were analyzed by XRPD to assess the solid forms. The analyzed samples were then dried on the XRPD plate under reduced pressure at 40° C. for 24 hr. The dried samples were analyzed by XRPD."}, "[4]": {"experiment": "Variable Temperature X-Ray Powder Diffraction (VT-XRPD)", "parameters": "key: Crystalline Form 3 di(hydrogen sulfate); Crystalline Form 9 di(hydrogen sulfate); Melt/Amorphous", "method": "as §1, with “VT-XRPD” for “VH-XRPD”, “temperature” for “humidity”, “(α1 λ=1.54060” for “(α1λ=1.54060”, “ambient temperature to an upper limit of 250° C.,” for “2-90% RH,”, “after cooling.” for “at 40% RH.”\nVT-XRPD analysis was carried out on a Philips X'Pert Pro Multipurpose diffractometer equipped with a temperature chamber. The samples were scanned between 4 and 36° 2θ using Cu K radiation (α1 λ=1.54060 Å; α2=1.54443 Å; β2=1.39225 Å; α1:α2 ratio=0.5; most, if not all, β radiation is removed from the beam using an X-ray mirror) running in Bragg-Brentano geometry (step size 0.008° 2θ) using 40 kV/40 mA generator settings. Measurements were carried out from ambient temperature to an upper limit of 250° C., with a final measurement taken after cooling."}, "[5]": {"settings": "second Heating, 150° C., hold 30 min"}, "[6]": {"settings": "second Heating, 160° C., hold 30 min"}}}
{"compound": "COc1cc(C(=O)O[C@@H]2CCCOc3cc(cc(OC)c3OC)C(=O)NCCCN3CCCN(CC2)CC3)cc(OC)c1OC.O=S(=O)(O)O", "values": [{"measurement": "XRPD of residual solids", "setting": "[1]; 25° C.", "result": "A"}]}
{"compound": "COc1cc(C(=O)O[C@@H]2CCCOc3cc(cc(OC)c3OC)C(=O)NCCCN3CCCN(CC2)CC3)cc(OC)c1OC.O=S(=O)(O)O.O=S(=O)(O)O", "note": "[crystalline Form 3 Compound 1 di(hydrogen sulfate)]", "values": [{"measurement": "VH-XRPD: Conv. To Form 6→Form 2 at", "setting": "[2]", "result": "Form 2 at ≥70% RH"}, {"measurement": "VH-XRPD: input form retained at", "setting": "[2]", "result": "at 10-60% RH"}, {"measurement": "relative humidity range in which peaks of crystalline Form 6 Compound 1 di(hydrogen sulfate) are observed in addition", "setting": "[2]", "result": "70-80 % RH"}, {"measurement": "relative humidity range in which the form is retained (VH-XRPD)", "setting": "[2]", "result": "2-60 % RH"}, {"measurement": "relative humidity at which conversion to crystalline Form 2 Compound 1 di(hydrogen sulfate) trihydrate is observed", "setting": "[2]; Form 3: after extended exposure", "result": "≥ 80", "unit": "% RH"}, {"measurement": "solid form by XRPD after slurrying", "setting": "[3]; solvent systems with aw=0.1, 48 hours", "result": "retained"}, {"measurement": "solid form by XRPD after slurrying", "setting": "[3]; solvent systems with aw=0.9, 48 hours", "result": "Conversion to crystalline Form 2 Compound 1 di(hydrogen sulfate) trihydrate"}, {"measurement": "XRPD of residual solids", "setting": "[1]; attempt 1, 25° C.", "result": "A"}, {"measurement": "XRPD of residual solids", "setting": "[1]; attempt 2, 25° C.", "result": "A"}, {"measurement": "VT-XRPD Results", "setting": "[4]; Cooling, 30° C., hold 10 min", "result": 9}, {"measurement": "VT-XRPD Results", "setting": "[4]; Heating, 70° C., hold 30 min", "result": 9}, {"measurement": "VT-XRPD Results", "setting": "[4]; Heating, 90° C., hold 30 min", "result": 9}, {"measurement": "VT-XRPD Results", "setting": "[4]; Heating, 105° C., hold 30 min", "result": 9}, {"measurement": "VT-XRPD Results", "setting": "[4]; second Heating, 120° C., hold 30 min", "result": 9}, {"measurement": "VT-XRPD Results", "setting": "[4]; second Heating, 130° C., hold 30 min", "result": 9}, {"measurement": "VT-XRPD Results", "setting": "[4]; second Heating, 140° C., hold 30 min", "result": 9}, {"measurement": "VT-XRPD Results", "setting": "[4]; [5]", "result": 9}, {"measurement": "VT-XRPD Results", "setting": "[4]; [6]", "result": "9 and Melt"}]}
{"compound": "CCCN1CCNCCCNC(=O)c2cc(OC)c(OC)c(c2)OCCC[C@@H](OC(=O)c2cc(OC)c(OC)c(OC)c2)CC1", "values": [{"measurement": "VH-XRPD: Conv. To Form 5 at", "setting": "[2]", "result": 5, "unit": "at 6% RH"}, {"measurement": "VH-XRPD: input form retained at", "setting": "[2]", "result": "at 10-80% RH"}, {"measurement": "VH-XRPD Results", "setting": "[2]; Desorption, 6% RH, hold 60 min", "result": "5, PC"}, {"measurement": "solid form by XRPD after slurrying", "setting": "[3]; acetonitrile:water (aw=0.1) at 50° C., 48 hours", "result": "conversion to crystalline Form 6 Compound 1 di(hydrogen sulfate)"}, {"measurement": "solid form by XRPD after slurrying", "setting": "[3]; the rest of the samples, 48 hours", "result": "consistent with crystalline Form 2 Compound 1 di(hydrogen sulfate) trihydrate"}, {"measurement": "VT-XRPD Results", "setting": "[4]; [5]", "result": "Melt"}, {"measurement": "VT-XRPD Results", "setting": "[4]; [6]", "result": "Melt"}]}
